# From US20040192680A1, “Novel amides that activate soluble guanylate cyclase” (priority 2002, published 2004)
# Molecular target: T1, soluble guanylate cyclase (α1 and β1 subunits of guanylate cyclase, expressed in Sf9 cells) (Homo sapiens, UniProt Q02108+Q02153)
# T1 construct: made in house; host or cells: Sf9 insect cells (baculovirus co-infection); high-speed supernatant used unpurified
# T1 sequence (Q02108 1-690): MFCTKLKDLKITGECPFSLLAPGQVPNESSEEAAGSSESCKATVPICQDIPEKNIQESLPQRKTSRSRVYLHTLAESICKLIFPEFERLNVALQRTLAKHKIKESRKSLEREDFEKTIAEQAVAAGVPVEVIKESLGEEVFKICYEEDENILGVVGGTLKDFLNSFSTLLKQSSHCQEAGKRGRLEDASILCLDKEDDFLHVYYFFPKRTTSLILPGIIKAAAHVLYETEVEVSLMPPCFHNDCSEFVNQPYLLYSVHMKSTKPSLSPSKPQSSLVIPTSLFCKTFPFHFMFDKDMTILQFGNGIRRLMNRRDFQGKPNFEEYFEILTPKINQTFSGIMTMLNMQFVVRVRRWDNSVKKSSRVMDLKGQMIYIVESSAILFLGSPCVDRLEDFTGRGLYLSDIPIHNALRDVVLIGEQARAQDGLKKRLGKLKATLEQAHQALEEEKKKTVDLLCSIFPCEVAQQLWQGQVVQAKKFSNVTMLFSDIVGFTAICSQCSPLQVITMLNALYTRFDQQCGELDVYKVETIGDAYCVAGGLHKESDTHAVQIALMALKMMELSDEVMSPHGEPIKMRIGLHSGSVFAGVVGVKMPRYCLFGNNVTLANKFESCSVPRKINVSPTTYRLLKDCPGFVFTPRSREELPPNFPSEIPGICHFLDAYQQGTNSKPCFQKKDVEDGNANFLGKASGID
# T1 sequence (Q02153 1-619): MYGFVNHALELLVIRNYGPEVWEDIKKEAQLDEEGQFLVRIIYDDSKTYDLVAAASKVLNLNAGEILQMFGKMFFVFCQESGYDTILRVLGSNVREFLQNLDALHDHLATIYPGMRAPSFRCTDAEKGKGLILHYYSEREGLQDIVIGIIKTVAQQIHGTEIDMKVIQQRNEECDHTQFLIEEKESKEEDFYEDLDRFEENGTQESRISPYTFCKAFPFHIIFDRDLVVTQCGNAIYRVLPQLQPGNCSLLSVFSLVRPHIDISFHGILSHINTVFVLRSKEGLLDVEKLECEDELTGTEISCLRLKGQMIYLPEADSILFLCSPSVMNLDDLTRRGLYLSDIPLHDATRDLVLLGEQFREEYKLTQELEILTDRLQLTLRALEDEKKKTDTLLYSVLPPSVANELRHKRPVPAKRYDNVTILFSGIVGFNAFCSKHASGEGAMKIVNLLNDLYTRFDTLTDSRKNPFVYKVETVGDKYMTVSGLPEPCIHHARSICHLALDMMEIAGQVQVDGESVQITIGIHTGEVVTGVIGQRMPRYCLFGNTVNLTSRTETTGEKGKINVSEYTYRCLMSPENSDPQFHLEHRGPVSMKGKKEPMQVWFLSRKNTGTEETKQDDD
# Assay: Guanylate Cyclase Assay (formation of cyclic GMP from GTP, with and without SNP)
# Assay type: biochemical
# Settings: compound at 100 μM without SNP; normalized with the activity of 100 μM YC-1 (without SNP) as 100%
# Description: Sf9 cells were cultured in Sf-90011 medium supplemented with 10% (v/v) fetal calf serum at 28° C. to give a count of 6×10^5 cells/ml. The cells were then infected with a mixture of the virus stocks for the α1 and β1 subunits of guanylate cyclase at a multiplicity of infection of 0.1 pfu/cell. The cells were harvested 72 hours after infection and were pelleted by centrifugation. The resulting cell pellets were homogenized with Polytron homogenizer in 3 volumes of 20 mM Tris-HCl (pH 7.6) containing 1 mM EDTA, 5 mM dithiothreitol, 90 mM NaCl, 10% glycerol, and protease inhibitors mix (Roche Molecular Biochemicals). The homogenate was centrifuged at 50,000×g for 60 minutes and the supernatant was aliquotted and stored at −80° C. […]
# Guanylate cyclase activity was measured by the formation of cyclic GMP from GTP in a total volume of 100 μl. […] The solution was centrifuged at 3000 rpm for 15 minutes at room temperature and cyclic GMP in 20 μl of the resulting supernatant was measured according to the protocol of Amersham cyclic GMP enzymeimmunoassay system (purchased from Sigma, catalogue number RPN 226).
# Compounds of the present invention were tested at 100 μM with and without 1 μM sodium nitro prusside (SNP). […] Mean basal efficacy, in Table 1, was expressed as a percentage of 100 μM YC-1 (without SNP). […]
smiles,measurement,value
"CC(O)CCNC(=O)/C=C/c1ccccc1Sc1ccc(Cl)cc1 (stereo not shown) [Example 38, (2E)-3-{2-[(4-chlorophenyl)thio]pheny}-N-(3-hydroxybutyl)acrylamide]","Mean basal efficacy of compound alone at 100 μM, [%]",60%
